Common to all, as to format: nucleic-acid assay
What all share (conditions): Bos taurus

Assay [1] concerns Calf thymus DNA. Kind of assay: Binding affinity to calf thymus DNA assessed as iodide quenching by measuring reduction in Stern-Volmer quenching constant at 50 uM by fluorescence assay relative to control. Set-up: scale not given: the % may be the effect or the level left.
Assay [2] deals with Calf thymus DNA. The experiment in a line: Inhibition of acridine orange binding to calf thymus DNA up to 80 uM by fluorescence assay.
For assay [3], the system named is Calf thymus DNA. The experiment in a line: Binding affinity to calf thymus DNA assessed as conformational change up to 100 uM by circular dichroism spectral analysis. In general terms: Circular dichroism is the unequal absorption of left and right circularly polarised light.
Assay [4] relates to Calf thymus DNA. The experiment in a line: Binding affinity to calf thymus DNA at 50 uM in presence of NaCl by fluorescence assay.
Assay [5] concerns Calf thymus DNA. Kind of assay: Binding affinity to calf thymus DNA by isothermal calorimetric titration method.
The subject of assay [6] is Calf thymus DNA. Kind of assay: Inhibition of Hoechst 33258 binding to calf thymus DNA up to 70 uM by fluorescence assay.
In assay [7] the test system is Calf thymus DNA. The experiment in a line: Binding affinity to calf thymus DNA assessed as hyperchromic shift at 281 nm at 50 uM by UV-visible spectrophotometric method.
Assay [8] relates to Calf thymus DNA. Kind of assay: Binding affinity to calf thymus DNA assessed as change in viscosity at compound to DNA ratio of 0.2 to 1 by viscometry.
Assay [9] concerns Calf thymus DNA. Kind of assay: Binding affinity to calf thymus DNA assessed as quenching constant at 50 uM at pH 7.2 by spectrofluorophotometric method.
The test system of assay [10] is Calf thymus DNA. The experiment in a line: Binding affinity to calf thymus DNA by UV-visible spectrophotometric method.
The test system of assay [11] is Calf thymus DNA. Kind of assay: Binding affinity to calf thymus DNA assessed as Stern-Volmer quenching constant at 50 uM at pH 7.2 by spectrofluorophotometric method.
Assay [12] concerns Calf thymus DNA. Kind of assay: Binding affinity to calf thymus DNA assessed as melting temperature at 50 uM by UV-visible spectroscopic method (reference value: 66.3 +/- 1 degC).
In assay [13] the test system is Calf thymus DNA. Kind of assay: Inhibition of ethidium bromide binding to calf thymus DNA up to 80 uM by fluorescence assay.

The source made the active and inactive calls. No cut-off for these calls is given here.

Turning to `COc1ccc2c(c1)c(CC(=O)O)c(C)n2C(=O)c1ccc(Cl)cc1`, the Activity in the assay on Calf thymus DNA [1] amounted to 19%. Besides, the inhibition entry with Calf thymus DNA [2] and with Calf thymus DNA [13] was “inactive” each time. Moreover, the result with Calf thymus DNA [3], in the assay on Calf thymus DNA [4] and with Calf thymus DNA [8] was inactive. Also, the values for the K in the assay with Calf thymus DNA [5] and with Calf thymus DNA [10] were 5.5 ×10³ /mol and 9.6 ×10³ L/mol, respectively. For the same molecule, the inhibition result in the assay with Calf thymus DNA [6] is “Active”. In the assay on Calf thymus DNA [7], the result was Active. For the same molecule, the Kq in the assay with Calf thymus DNA [9] was determined as 1.1 ×10¹¹ L/mol/s. Further, the KSV in the assay with Calf thymus DNA [11] worked out at 1.1 ×10³ L/mol. Besides, the Tm in the assay with Calf thymus DNA [12] turned out to be 68.2 °C.

The record behind these values is ChEMBL document CHEMBL4261514, “Interaction of indomethacin with calf thymus DNA: a multi-spectroscopic, thermodynamic and molecular modelling approach” (Medchemcomm, 2017).
